Read-outs that look alike come from different tables or passages of the source. Starred links: 1 amine or outer side, 2 acyl side, 3 side chain; linkers in the order of their positions; H or OH if unused. Non-standard residues stand in square brackets, D forms with d. Primed or numbered codes have the meaning given here. No end group written: not given here. K(Palm) = CCCCCCCCCCCCCCCC(=O)NCCCC[C@H](N[*:1])C(=O)[*:2]; PEG2′ = short PEG2 spacer in the linker
Key:
[1] = target: T1, PTH receptor (Homo sapiens, UniProt Q03431); test: cAMP signaling in SaOS2/glosensor (SGS-72) cells; format: cell-based; details: for Max %: maximum cAMP response relative to PTH(1-34)-2009
T1 construct: endogenous in cells; host or cells: SaOS2-derived SGS-72 cells (human osteoblast line stably transfected with the GloSensor cAMP reporter)
T1 sequence (Q03431 27-593): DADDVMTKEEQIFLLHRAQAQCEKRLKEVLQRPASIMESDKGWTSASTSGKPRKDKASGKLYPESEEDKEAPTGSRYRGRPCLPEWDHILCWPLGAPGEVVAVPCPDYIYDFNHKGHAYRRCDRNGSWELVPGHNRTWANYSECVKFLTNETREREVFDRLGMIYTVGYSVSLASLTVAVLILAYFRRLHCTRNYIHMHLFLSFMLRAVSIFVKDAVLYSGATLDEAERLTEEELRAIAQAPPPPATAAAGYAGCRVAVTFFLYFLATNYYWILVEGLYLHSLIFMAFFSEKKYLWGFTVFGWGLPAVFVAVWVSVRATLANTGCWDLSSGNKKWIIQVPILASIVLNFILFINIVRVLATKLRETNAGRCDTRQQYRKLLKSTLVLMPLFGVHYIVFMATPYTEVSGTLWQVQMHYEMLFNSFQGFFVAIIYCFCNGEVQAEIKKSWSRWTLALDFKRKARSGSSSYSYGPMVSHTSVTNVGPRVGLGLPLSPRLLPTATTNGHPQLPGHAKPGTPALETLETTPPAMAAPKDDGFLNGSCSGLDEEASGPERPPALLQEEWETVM
Method: The cells are derived from the human osteoblast cell line, SaOS2 by stable transfection with a glosensor cAMP reporter.
cAMP signaling was assessed in an SaOS2-derived cell line stably expressing the luciferase-based GloSensor™ cAMP reporter (Hattersley et al., Paper presented at: Novel Signaling Mechanisms and Bone Cell Biology 2014; Binkowski et al., Methods in Molecular Biology 756:263-271, 2011). The cells were seeded into 96-well white plates and were assayed 24 to 48 hours post-confluency. Assays were performed at room temperature in CO2-independent culture media (Life Technologies, Corp., Carlsbad, CA) containing 0.1% BSA (CIDB). […] The time at which maximum luminescence (cps) observed with agonist alone, typically at 10-20 minutes after agonist addition, was used to obtain data from wells containing antagonist with or without agonist, to thus generate antagonist ligand dose-response curves. The resulting cps values were then plotted against ligand concentration using GraphPad Prism 7.0 software and a four-parameter logistics curve fitting equation, which yielded parameters of inhibitory potency (pIC50).

[2] = Blood ionized calcium in mice after injection; format: in vivo; details: single dose 10 nmol/kg i.v.
Excerpt: Data are means±SEM; n=6 mice per group.
In Vivo Testing of the Polypeptides Wild-type, ca. 10-week old male C57BL/6J mice were purchased from the Charles River Laboratories (Wilmington, Massachusetts, USA). The origin and method of breeding of Col1-H223R “Jansen's” transgenic mice is described by Calvi et al. (J. Clin. Invest. 107:277-286, 2001). Mice were maintained in facilities operated by the Center for Comparative Research of the Massachusetts General Hospital, and acclimated in the facilities for seven days prior to being used for study. All experimental procedures were approved by the MGH Institutional Animal Care and Use Committee (IACUC). In each study, animals were assigned randomly to treatment groups. Where possible, power calculations established that the number of animals used per study group was sufficient to detect statistically significant differences in intended primary experimental outcomes (i.e., changes in serum Ca and Pi).

[3] = mouse, in vivo, sc
Method: (§1) Mice were injected IV via the tail vein or subcutaneously with ligands in vehicle (0.05% Tween 80; 10 mM citrate; 150 mM NaCl; pH 5.0) to give the intended final ligand dose (e.g. 50 nmol/kg body weight). At times immediately before (t=0) and after injection, tail vein blood was collected and analyzed for concentrations of administered peptides or blood ionized calcium (Ca^2+) measured with a RAPIDLAB 348 analyzer (SIEMENS Healthcare Diagnostic, United Kingdom).

[4] = in vivo; details: mouse, sc
Method: as §1

[5] = Pharmacokinetic properties in mice, hPTH(1-34) ELISA of plasma
Method: as §1

[6] = Hypophosphatemic effect (total inorganic phosphorus) in mice; format: in vivo; details: as compared to PTH(1-34)
Excerpt: Tail vein blood and spot urine were collected just prior to injection (t=0) and at the indicated times after injection.
Peptide doses for FIGS. 4A and 4B were 10 nmol/kg, while peptide doses were 50 nmol/kg for FIGS. 4C and 4D. T-test vs. vehicle: *p<0.05; PTH vs. Palm: +p<0.05. Mice were CD1 females, age 10 weeks. Data are means±SEM, n=6.

Compound | Max % ([1]; means ± SEM) | duration of increase of blood Ca2+ levels [2] | total area-under-the-curve [3] | half-life [4] | AUC ([4]; 10 nmol/kg) | half-life ([4]; 10 nmol/kg) | Cmax ([5]; mouse, plasma, sc, 10 nmol/kg) | pEC50 (log molar concentration to attain 50% of maximum response observed with PTH(1-34)-2009) ([1]; SaOS2/glosensor (SGS-72) cells, means ± SEM, n = 5) | EC50 ([1]; SaOS2/glosensor (SGS-72) cells, read-out: EC50, concentration in nM shown below pEC50 (converted)) | hypophosphatemic effects [6] | total area-under-the-curve ([5]; mice, single injection 10 mnol/kg s.c.) | AUC ([5]; mouse, plasma, sc, 10 nmol/kg) | Tmax ([5]; mouse, plasma, sc, 10 nmol/kg) | half-life ([5]; mouse, plasma, sc, 10 nmol/kg)
CC[C@H](C)[C@H](NC(=O)[C@H](CCC(=O)O)NC(=O)[C@H](CO)NC(=O)[C@@H](NC(=O)[C@@H](N)CO)C(C)C)C(=O)N[C@@H](CCC(N)=O)C(=O)N[C@@H](CC(C)C)C(=O)N[C@@H](CCSC)C(=O)N[C@@H](Cc1cnc[nH]1)C(=O)N[C@@H](CC(N)=O)C(=O)N[C@@H](CC(C)C)C(=O)NCC(=O)N[C@@H](CCCCN)C(=O)N[C@@H](Cc1cnc[nH]1)C(=O)N[C@@H](CC(C)C)C(=O)N[C@@H](CC(N)=O)C(=O)N[C@@H](CO)C(=O)N[C@@H](CCSC)C(=O)N[C@@H](CCC(=O)O)C(=O)N[C@@H](CCCNC(=N)N)C(=O)N[C@H](C(=O)N[C@@H](CCC(=O)O)C(=O)N[C@@H](Cc1c[nH]c2ccccc12)C(=O)N[C@@H](CC(C)C)C(=O)N[C@@H](CCCNC(=N)N)C(=O)N[C@@H](CCCCN)C(=O)N[C@@H](CCCCN)C(=O)N[C@@H](CC(C)C)C(=O)N[C@@H](CCC(N)=O)C(=O)N[C@@H](CC(=O)O)C(=O)N[C@H](C(=O)N[C@@H](Cc1cnc[nH]1)C(=O)N[C@@H](CC(N)=O)C(=O)N[C@@H](Cc1ccccc1)C(N)=O)C(C)C)C(C)C [PTH(1-34)-2009, PTH(1-34)] | 100 ± 0% | ≤ 4 h | 0.00043 µM·h | 12 min | 0.00043 µM·h | 12 min | 0.65 nM | – | – | – | – | – | – | –
W1-Palm-PTH(1-34) (WVSEIQLMHNLGKHLNSMERVEWLRKKLQDVHNF[PEG2′]EYE-{K(Palm)-Glu-Tyr-Glu-NH2}) [Trp1-Palm-PTH(1-34)-2029] | 77 ± 8% | – | – | – | – | – | – | 8.72 ± 0.15 | 1.91 nM | – | – | – | – | –
CCCCCCCCCCCCCCCC(=O)NCCCC[C@H](NC(=O)[C@H](CCC(=O)O)NC(=O)[C@H](Cc1ccc(O)cc1)NC(=O)[C@H](CCC(=O)O)NC(=O)COCCOCCNC(=O)[C@H](Cc1ccccc1)NC(=O)[C@H](CC(N)=O)NC(=O)[C@H](Cc1c[nH]cn1)NC(=O)[C@@H](NC(=O)[C@H](CC(=O)O)NC(=O)[C@H](CCC(N)=O)NC(=O)[C@H](CC(C)C)NC(=O)[C@H](CCCCN)NC(=O)[C@H](CCCCN)NC(=O)[C@H](CCCNC(=N)N)NC(=O)[C@H](CC(C)C)NC(=O)[C@H](Cc1c[nH]c2ccccc12)NC(=O)[C@H](CCC(=O)O)NC(=O)[C@@H](NC(=O)[C@H](CCCNC(=N)N)NC(=O)[C@H](CCC(=O)O)NC(=O)[C@H](CCSC)NC(=O)[C@H](CO)NC(=O)[C@H](CC(N)=O)NC(=O)[C@H](CC(C)C)NC(=O)[C@H](Cc1c[nH]cn1)NC(=O)[C@H](CCCCN)NC(=O)CNC(=O)[C@H](CC(C)C)NC(=O)[C@H](CC(N)=O)NC(=O)[C@H](Cc1c[nH]cn1)NC(=O)[C@H](CCSC)NC(=O)[C@H](CC(C)C)NC(=O)[C@H](CCC(N)=O)NC(=O)[C@@H](NC(=O)[C@H](CCC(=O)O)NC(=O)[C@H](CO)NC(=O)[C@@H](NC(=O)[C@@H](N)CO)C(C)C)[C@@H](C)CC)C(C)C)C(C)C)C(=O)N[C@@H](CCC(=O)O)C(=O)N[C@@H](Cc1ccc(O)cc1)C(=O)N[C@@H](CCC(=O)O)C(N)=O [Palm-PTH(1-34)-2027, Palm-PTH(1-34)] | – | at least 24 hours | – | – | – | – | 28.1 nM | – | – | prolonged hypophosphatemic effects | 0.116 µM·h | 0.116 µM·h | 60 min | 114 min

— patent publication US11975050B2, “Parathyroid hormone polypeptide conjugates and methods of their use” (The General Hospital Corporation, priority 2018, dated 2024)
